Assay results published in US7008666B2, “Method of inhibiting overactivity of phagocytes or lymphocytes in an individual” (Hormos Nutraceutical Oy Ltd., priority 2001, dated 2006).

Tests used:
human neutrophils = assay: Neutrophil oxidative burst, PMA-stimulated, lucigenin chemiluminescence; format: cell-based; conditions: human neutrophils in vitro, PMA stimulus
Protocol: (§1) Isolation of neutrophils: Neutrophils were isolated from 30 mL freshly drawn heparinized whole blood, after dextran sedimentation of erythrocytes for 30 min. The leucocyte rich plasma was layered over an equal volume of Percoll (Sigma) and centrifuged at 400×g for 15 min. Erythrocytes, contaminating the neutrophil pellet, were destroyed by osmotic lysis with 0.87% NH4Cl (pH 7.0). Neutrophils were washed with PBS (pH 7.1) and centrifuged at 200×g for 10 min. Cells were resuspended in fresh HBS (containing 0.8 g NaCl, 0.4 g KCl, 0.06 g Na2HPO4×2 H2O, 0.06 g KH2PO4, 0.1 g MgSO4×7H2O and 1 g glucose in 1000 mL of distilled water; pH adjusted to 7.4 by 7% NaHCO3) and counted before use.
Measurement of neutrophil oxidative burst: Production of reactive oxygen species by neutrophils was recorded by chemiluminescent analysis. Chemiluminescence measurements were performed with Bio-Orbit 1251 Luminometer connected to a personal computer with special programs for the assays (Bio-Orbit, Turku, Finland). The protocol for each assay included automatic pipetting of the appropriate reagent that initiated the reaction in all cuvettes. Six or twelve samples were analyzed simultaneously, depending on the assay. Disposable plastic cuvettes were used throughout.
One millilitre of cell suspension (final cell count 10^6 cells/mL) was placed in plastic cuvettes, and the level of resting chemiluminescence was recorded before addition of the stimulus; production of reactive oxygen by neutrophils (oxidative burst) was stimulated by addition of phorbol-myristate-acetate (PMA). The buffer (HBS, pH 7.4) was pipetted in a volume of 0.930 mL in the luminometer cuvette. Test compounds were added to incubation mixtures in a small volume (2% of total incubation volume) of ethanol. […] Fifty microliters of 5 mM lucigenin was added, and the reaction was initiated by 0.020 mL of 0.1 mM PMA at 37° C. The chemiluminescence was measured for about 45 min at 1 min cycles and the area under curve (integral) was calculated. […] Based on these experiments, a IC50-value (concentration that under these circumstances produced a 50% inhibition of neutrophil oxidative burst) was determined.

Myeloperoxidase = molecular target: T1, Myeloperoxidase (Homo sapiens, UniProt P05164); assay: Myeloperoxidase activity, tetramethylbenzidine oxidation; format: biochemical; conditions: human neutrophils in vitro
T1 construct: And Myeloperoxidase Activity Of Human Neutrophils In Vitro; endogenous in cells; host or cells: human neutrophils isolated from freshly drawn heparinized whole blood
T1 sequence (P05164 279-745 limits assumed): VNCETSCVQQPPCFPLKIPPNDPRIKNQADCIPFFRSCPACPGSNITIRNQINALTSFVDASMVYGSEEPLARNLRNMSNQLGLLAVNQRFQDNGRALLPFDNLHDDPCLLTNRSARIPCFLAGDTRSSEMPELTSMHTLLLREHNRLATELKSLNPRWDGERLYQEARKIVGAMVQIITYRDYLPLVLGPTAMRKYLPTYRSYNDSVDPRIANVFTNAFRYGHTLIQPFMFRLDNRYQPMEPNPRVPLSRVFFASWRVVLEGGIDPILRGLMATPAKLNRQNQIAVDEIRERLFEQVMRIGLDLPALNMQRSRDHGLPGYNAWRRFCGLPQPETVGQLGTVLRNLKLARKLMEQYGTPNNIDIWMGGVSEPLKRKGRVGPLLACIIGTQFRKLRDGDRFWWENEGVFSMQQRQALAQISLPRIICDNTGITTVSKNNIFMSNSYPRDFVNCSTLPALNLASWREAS
T1 sequence (P05164 165-273 limits assumed): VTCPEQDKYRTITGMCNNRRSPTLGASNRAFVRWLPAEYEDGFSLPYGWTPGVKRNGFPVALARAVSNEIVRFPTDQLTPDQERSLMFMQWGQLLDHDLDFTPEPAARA
Protocol: as §1
Myeloperoxidase activity: Myeloperoxidase activity was determined by the method of Suzuki et al. (Suzuki, K., Ota, H., Sasagawa, S., Sakatoni, T., Fujikura, T., Ann Biochem 132:345–352, 1983) in which the enzyme catalyzes the oxidation of 3,3′,5,5′-tetramethylbenzidine by H2O2 to yield a blue chromogen with a maximum wavelength of 655 nm. Studies on myeloperoxidase inhibition in vitro were performed by adding test compounds to incubation mixtures in a small volume (2% of incubation volume) of ethanol. […] Based on these experiments, a IC50-value (concentration that under these circumstances produced a 50% inhibition of myeloperoxidase activity) was determined.

[1] = test system: Fas receptor on Jurkat cells; assay: Fas receptor surface (FasR) expression, immunostaining; format: cell-based, human; conditions: 50 or 100 μM, versus untreated control
Protocol: Effect of lignans on Fas receptor surface (FasR) expression: The experiment was performed essentially as described in the literature (Brunner et al., Nature 373, 441–443, 1995). The surface expression of the FasR was measured by immunostaining alive Jurkat cells with an monoclonal anti-FasR antibody (Medical Biological Laboratories Co. Ltd, Japan, clone CH-11) and an anti-mouse antibody labelled with FITC (Alexis Biochemicals Ltd, USA) according to manufacturers instructions. The fluorescence intensity equals the amount of antibody bound to the FasR on the cell membrane.

Monocytes [2] = assay: LPS-induced TNF-α production by monocytes, ELISA; format: cell-based, human; conditions: 100 μM, 24 h pre-incubation, LPS 1 μg/ml for 48 h; IL-10 100 U/ml
Protocol: Monocytes were isolated from human peripheral blood mononuclear cells by magnetic sorting. The cells were pre-incubated with the lignans matairesinol (as a reference compound) and enterolactone (1–100μM) or interleukin 10 (IL-10) (100 U/ml) for 24 hours before addition of LPS (1 μg/ml) into cell culture. After additional 48 hours the levels of TNF- from culture supernatants were measured by ELISA.

Monocytes [3] = conditions: 1200 IU per day for 8 weeks, healthy volunteers; cited from earlier work
neutrophils = conditions: 6.25 mg daily for 1 week; cited from earlier work
mononuclear cells = conditions: 6.25 mg daily for 1 week; cited from earlier work

Structure (SMILES) | IC50 (Myeloperoxidase) [µM] | IC50 (human neutrophils; Neutrophil) [µM] | Fas surface expression [1] | also measured
CN(C)CCOc1ccc(/C(=C(/CCCl)c2ccccc2)c2ccc(O)cc2)cc1 [4-OH-toremifene, reference compound] | 54 |  |  | IC50 (human neutrophils): 1.7 µM
COc1cc(CC2C(=O)OCC2C(O)c2ccc(O)c(OC)c2)ccc1O (stereo not shown) [Hydroxymatairesinol, hydroxymatairesinol] | 6.8 | 5.3 | elevated level of Fas protein | 
COc1cc(C[C@H]2COC(=O)[C@@H]2Cc2ccc(O)c(OC)c2)ccc1O [Matairesinol, matairesinol] | 44.5 | 11 | elevated level of Fas protein | LPS-induced TNF-α production compared with positive control IL-10 (Monocytes [2]): at least as effective
CC(=O)C(=Cc1cc(O)c(O)c([N+](=O)[O-])c1)C(C)=O [Nitecapone, nitecapone, reference compound] | 2.3 | 7.5 |  | 
Cc1c(C)c2c(c(C)c1O)CC[C@@](C)(CCC[C@H](C)CCC[C@H](C)CCCC(C)C)O2 [alpha-tocopherol] |  |  |  | decrease in reactive oxygen production by monocytes (Monocytes [3]): 50%–60
COc1ccccc1OCCNCC(O)COc1cccc2[nH]c3ccccc3c12 (stereo not shown) [carvedilol] |  |  |  | decrease of reactive oxygen production by neutrophils (neutrophils): 59%; decrease of reactive oxygen production by mononuclear cells (mononuclear cells): 62%
O=C1OC[C@H](Cc2cccc(O)c2)[C@H]1Cc1cccc(O)c1 [enterolactone] |  |  | elevated level of Fas protein | LPS-induced TNF-α production compared with positive control IL-10 (Monocytes [2]): at least as effective
